Patent publication US20260053861A1, “CELL COMPOSITIONS AND METHODS OF USING THE SAME” (THE REGENTS OF THE UNIVERSITY OF CALIFORNIA, priority 2022, published 2026)
Counter-ions that a name gives are not always drawn. Like-named read-outs stand apart in the source and are kept apart here.

System: hPSC-SCs
[1] = HTS viability of hPSC-SCs in the presence of 30 mM glucose, Prestwick library, Table S4

Compound: COc1cc2c3cc1Oc1cc(ccc1O)C[C@@H]1c4c(cc(OC)c(O)c4Oc4ccc(cc4)C[C@@H]3N(C)CC2)CC[N+]1(C)C.Cl.O.O.O.O.O.[Cl-] [Tubocurarine chloride pentahydrate (+)]
- z.score.t: −1.166

Compound: COc1ccc2[nH]cc(CCNC(C)=O)c2c1 [Melatonin]
- z.score.t [1]: 0.006455

Compound: C=C1[C@H]2C[C@@]3([C@@H]1O)[C@@H](C[C@@H]2O)[C@]12[C@@H]4C[C@H]3[C@H]1N(CC)C[C@]4(C)CC[C@@H]2O [Napelline]
- z.score.t: 1.178

Compound: O=C1C(O)=C([C@H]2CC[C@H](c3ccc(Cl)cc3)CC2)C(=O)c2ccccc21 [Atovaquone]
- z.score.t [1]: −1.62

Compound: C#CCN(C)Cc1ccccc1 [Pargyline hydrochloride]
- z.score.t [1]: 0.7789

Compound: CN1CCN(CCCN2c3ccccc3Sc3ccc(Cl)cc32)CC1 [Prochlorperazine dimaleate]
- z.score.t [1]: −0.7775

Compound: (−)-Quinpirole hydrochloride
- z.score.t: 1.683

Compound: Cc1nc2ccccn2c(=O)c1CCN1CCC(C(=O)c2ccc(F)cc2)CC1 [Pirenperone]
- z.score.t [1]: −0.07901

Compound: CNCCc1ccccn1.CS(=O)(=O)O.CS(=O)(=O)O [Betahistine mesylate]
- z.score.t [1]: −0.6301

Compound: C[N+]1(C)CCC(=C(c2ccccc2)c2ccccc2)CC1 [Diphemanil methylsulfate]
- z.score.t [1]: 0.05523

Compound: Lycorine hydrochloride
- z.score.t: −2.213

Compound: O=C(N[C@H](CO)[C@H](O)c1ccc([N+](=O)[O-])cc1)C(Cl)Cl [Chloramphenicol]
- z.score.t [1]: 1.278

Compound: CCN(CC)CCNC(=O)COc1ccc(OC)cc1 [Mefexamide hydrochloride]
- z.score.t [1]: 0.189

Compound: O=C(c1ccccc1)c1ccc2n1CCC2C(=O)O (stereo not drawn) [Ketorolac tromethamine]
- z.score.t [1]: 0.8465

Compound: CC1=CC(=O)c2ccccc2C1=O [Menadione]
- z.score.t [1]: −1.949

Compound: CCN1C[C@]2(COC)CC[C@H](O)[C@]34C1[C@@](O)([C@@H](OC)[C@H]23)[C@@]1(O)C[C@H](OC)[C@H]2C[C@@H]4[C@@H]1[C@H]2OC [Delsoline]
- z.score.t: 1.566

Compound: Alverine citrate salt
- z.score.t [1]: −1.025

Compound: CC(C)OC(=O)C(C)(C)Oc1ccc(C(=O)c2ccc(Cl)cc2)cc1 [Fenofibrate]
- z.score.t [1]: 0.1742

Compound: CC1=C2[C@H]3OC(=O)[C@@H](C)[C@@H]3CC[C@@]2(C)C=CC1=O [alpha-Santonin]
- z.score.t: −1.108

Compound: CCCCC1(COC(=O)CCC(=O)O)C(=O)N(c2ccccc2)N(c2ccccc2)C1=O [Suxibuzone]
- z.score.t [1]: 0.9352

Compound: C[N+](C)(CCOc1ccccc1)Cc1ccccc1.O=C([O-])c1cc2ccccc2cc1O [Bephenium hydroxynaphthoate]
- z.score.t [1]: 0.5158

Compound: CCOC(=O)[C@H](CCc1ccccc1)N[C@@H](C)C(=O)N1CCC[C@H]1C(=O)O [Enalapril maleate]
- z.score.t [1]: −0.8991

Compound: Clc1ccc(CCC(Cn2ccnc2)Sc2c(Cl)cccc2Cl)cc1 (stereo not drawn) [Butoconazole nitrate]
- z.score.t [1]: −1.151

Compound: COc1cc(OC)c(C(=O)CCCN2CCCC2)c(OC)c1 [Buflomedil hydrochloride]
- z.score.t [1]: 0.3641

Compound: N=C(N)NC(=O)Cc1c(Cl)cccc1Cl [Guanfacine hydrochloride]
- z.score.t [1]: 0.9047

Compound: CCCNC(C)(C)COC(=O)c1ccccc1 [Meprylcaine hydrochloride]
- z.score.t [1]: −0.4953

Compound: CN1C[C@H](CNC(=O)OCc2ccccc2)C[C@@H]2c3cccc4c3c(cn4C)C[C@H]21 [Metergoline]
- z.score.t [1]: 1.211

Compound: CCCSc1ccc2nc(NC(=O)OC)[nH]c2c1 [Albendazole]
- z.score.t: −1.079

Compound: NC(=O)c1ccc[n+]([C@@H]2O[C@H](COP(=O)([O-])OP(=O)(O)OC[C@H]3O[C@@H](n4cnc5c(N)ncnc54)[C@H](O)[C@@H]3O)[C@@H](O)[C@H]2O)c1 [Nadide]
- z.score.t [1]: 0.453

Compound: CC(=O)[C@H]1CC[C@H]2[C@@H]3CC=C4C[C@@H](O)CC[C@]4(C)[C@H]3CC[C@]12C [Pregnenolone]
- z.score.t [1]: −0.6864

Compound: Cc1c(Nc2ncccc2C(=O)O)cccc1C(F)(F)F [Flunixin meglumine]
- z.score.t [1]: 1.117

Compound: CNCC(O)c1ccc(O)c(OC)c1.Cl (stereo not drawn) [Metanephrine hydrochloride DL]
- z.score.t [1]: 1.259

Compound: CCN[C@H]1C[C@H](C)S(=O)(=O)c2sc(S(N)(=O)=O)cc21 [Dorzolamide hydrochloride]
- z.score.t [1]: −0.7873

Compound: COc1nc(C)nc(Cl)c1N=C1NCCN1 [Moxonidine]
- z.score.t [1]: −0.133

Compound: O=C(O)c1ccccc1Nc1cccc(C(F)(F)F)c1 [Flufenamic acid]
- z.score.t [1]: −1.003

Compound: Clc1cnccn1 [2-Chloropyrazine]
- z.score.t [1]: 0.2112

Compound: Cc1cc2c(C(C)C)c(O)c(O)c(C=O)c2c(O)c1-c1c(C)cc2c(C(C)C)c(O)c(O)c(C=O)c2c1O [Gossypol]
- z.score.t: −2.368

Compound: COc1cc([C@@H]2c3cc4c(cc3[C@H](O)[C@H]3COC(=O)[C@H]23)OCO4)cc(OC)c1OC [Podophyllotoxin]
- z.score.t: −2.152

Compound: CCOc1ccc2c(c1)C(C)=CC(C)(C)N2 [Ethoxyquin]
- z.score.t [1]: −1.23

Compound: CN(C)CCOC(=O)COc1ccc(Cl)cc1 [Meclofenoxate hydrochloride]
- z.score.t: −2.264

Compound: CC(C)(C)C(=O)OCOC(=O)[C@@H]1N2C(=O)[C@@H](NC(=O)[C@H](N)c3ccccc3)[C@H]2SC1(C)C [Pivampicillin]
- z.score.t [1]: −0.2187

Compound: Nc1cc(N2CCCCC2)nc(N)[n+]1[O-] [Minoxidil]
- z.score.t [1]: 0.2479

Compound: CCN(CC)CCc1nc(-c2ccccc2)no1.O=C(O)CC(O)(CC(=O)O)C(=O)O [Oxalamine citrate salt]
- z.score.t [1]: −0.3023

Compound: CN(C)C(=N)N=C(N)N [Metformin hydrochloride]
- z.score.t [1]: 0.8639

Compound: CC[C@@]1([C@@H]2O[C@@H]([C@H]3O[C@@](O)(CO)[C@H](C)C[C@@H]3C)C[C@@H]2C)CC[C@H]([C@]2(C)CC[C@]3(C[C@H](O)[C@@H](C)[C@@H]([C@@H](C)[C@@H](OC)[C@H](C)C(=O)O)O3)O2)O1 [Monensin sodium salt]
- z.score.t [1]: −2.299

Compound: CCCCNc1ccc(C(=O)OCCOCCOCCOCCOCCOCCOCCOCCOCCOC)cc1 [Benzonatate]
- z.score.t [1]: 0.6386

Compound: CC1(C)O[C@@H]2C[C@H]3[C@@H]4C[C@H](F)C5=CC(=O)CC[C@]5(C)[C@H]4[C@@H](O)C[C@]3(C)[C@]2(C(=O)CO)O1 [Flurandrenolide]
- z.score.t [1]: 0.4741

Compound: O=c1ccc2cc(O[C@@H]3O[C@H](CO)[C@@H](O)[C@H](O)[C@H]3O)c(O)cc2o1 [Esculin Hydrate]
- z.score.t: 1.053

Compound: C[C@H](CCC(=O)O)[C@H]1CC[C@H]2[C@@H]3C(=O)C[C@@H]4CC(=O)CC[C@]4(C)[C@H]3CC(=O)[C@]12C [Dehydrocholic acid]
- z.score.t [1]: 1.472

Compound: COc1c(C)c2c(c(O)c1C/C=C(\C)CCC(=O)O)C(=O)OC2 [Mycophenolic acid]
- z.score.t [1]: −0.7775

Compound: O=C(O)CCCC[C@@H]1SC[C@@H]2NC(=O)N[C@@H]21 [Biotin]
- z.score.t [1]: 0.2189

Compound: CC1=C(/C=C/C(C)=C/C=C/C(C)=C\C(=O)O)C(C)(C)CCC1 [Isotretinoin]
- z.score.t [1]: 0.4346

Compound: CCCN1C[C@H](CSC)C[C@@H]2c3cccc4[nH]cc(c34)C[C@H]21 [Pergolide mesylate]
- z.score.t [1]: 0.1298

Compound: NS(=O)(=O)c1cc2c(cc1C(F)(F)F)NC(Cc1ccccc1)NS2(=O)=O (stereo not drawn) [Bendroflumethiazide]
- z.score.t [1]: −1.107

Compound: Cc1onc(-c2c(Cl)cccc2Cl)c1C(=O)N[C@@H]1C(=O)N2[C@@H]1SC(C)(C)[C@@H]2C(=O)O [Dicloxacillin sodium salt]
- z.score.t [1]: 1.942

Compound: C[N+]12CCC(CC1)C(OC(=O)C(O)(c1ccccc1)c1ccccc1)C2 (stereo not drawn) [Clidinium bromide]
- z.score.t [1]: 1.743

Compound: CNCCC(Oc1ccc(C(F)(F)F)cc1)c1ccccc1 (stereo not drawn) [Fluoxetine hydrochloride]
- z.score.t [1]: −0.865

Compound: COc1ccc([C@@H]2CC(=O)c3c(O)cc(O[C@@H]4O[C@H](CO[C@@H]5O[C@@H](C)[C@H](O)[C@@H](O)[C@H]5O)[C@@H](O)[C@H](O)[C@H]4O)cc3O2)cc1O [Hesperidin]
- z.score.t: 0.2399

Compound: C[C@@]1(O)CCOC(=O)C1 [Mevalonic-D, L acid lactone]
- z.score.t [1]: 0.2361

Compound: COc1ccc(C(=O)NCc2cccnc2)cc1C(=O)NCc1cccnc1 [Picotamide monohydrate]
- z.score.t [1]: −0.04944

Compound: Cc1nccn1CC1CCc2c(c3ccccc3n2C)C1=O (stereo not drawn) [Ondansetron Hydrochloride]
- z.score.t [1]: −0.3173

Compound: CC[C@@H](C(=O)[C@@H](C)[C@@H](O)[C@H](C)CCc1ccc(C)c(O)c1C(=O)O)[C@H]1O[C@](CC)([C@H]2CC[C@](O)(CC)[C@H](C)O2)C[C@@H]1C [Lasalocid sodium salt]
- z.score.t [1]: −2.368

Compound: O=c1oc2ccccc2c(O)c1Cc1c(O)c2ccccc2oc1=O [Dicumarol]
- z.score.t [1]: −0.3242

Compound: CC(=O)c1cc2ccccc2oc1=O [3-Acetylcoumarin]
- z.score.t [1]: −0.7757

Compound: CN(C)CC/C=C1\c2ccccc2CSc2ccccc21 [Dosulepin hydrochloride]
- z.score.t [1]: −0.8478

Compound: CO[C@@H]1C=C2CCN(C)[C@@H]2C2c3cc4c(cc3C(=O)OC21)OCO4.O=[N+]([O-])O (stereo partly drawn) [Ungerine nitrate]
- z.score.t [1]: 1.117

Compound: c1ccc2c(CC3=NCCN3)cccc2c1 [Naphazoline hydrochloride]
- z.score.t [1]: 0.7665

Compound: C[C@]12C[C@H](O)[C@H]3[C@@H](CCC4=CC(=O)CC[C@@]43C)[C@@H]1CC[C@@H]2C(=O)CO [Corticosterone]
- z.score.t [1]: −0.2486

Compound: Guanadrel sulfate
- z.score.t: 0.7158

Compound: OCc1cc(C(O)CNCCCCCCOCCCCc2ccccc2)ccc1O (stereo not drawn) [Salmeterol]
- z.score.t [1]: −1.331

Compound: NNC(=O)c1ccncc1 [Isoniazid]
- z.score.t [1]: 0.5041

Compound: Fc1ccc([C@@H]2CCNC[C@H]2COc2ccc3c(c2)OCO3)cc1 [Paroxetine Hydrochloride]
- z.score.t [1]: −1.138

Compound: NNCCc1ccccc1 [Phenelzine sulfate]
- z.score.t [1]: 0.852

Compound: C[C@@H]1O[C@@H](O[C@H]2C[C@@H](O)[C@]3(CO)[C@H]4[C@H](O)C[C@]5(C)[C@@H](C6=CC(=O)OC6)CC[C@]5(O)[C@@H]4CC[C@]3(O)C2)[C@H](O)[C@H](O)[C@H]1O.O.O.O.O.O.O.O.O [Strophantine octahydrate]
- z.score.t: −2.04

Compound: Nc1nc(N)c2nc(-c3ccccc3)c(N)nc2n1 [Triamterene]
- z.score.t [1]: 0.4903
